The numbers were not newly measured in patent US20210268001A1, “USE OF MIOTIC C[…] F2a PRO[…] FOR PREVENTION AND TREATMENT OF MYOPIA” (priority 2018, published 2021), which cites them from elsewhere.

The structures appear in SMILES notation.

One series deals with cholinergic receptors. Set-up: unit not given here. Particulars: reversible acetylcholinesterase inhibitors.
In series [1] the test system is corneal epithelium epithelial cells.

As for `CC[N+](C)(C)c1cccc(O)c1` [edrophonium], in the series with cholinergic receptors, the action time entry is on record as “one to two”.
Take `COc1cc2c(cc1OC)C(=O)C(CC1CCN(Cc3ccccc3)CC1)C2` (stereo not shown) [donepezil]: the action time result with cholinergic receptors is listed as “one to two”.
As to `CN(C)C(=O)Oc1ccc[n+](C)c1` [pyridostigmine], the action time result in the series on cholinergic receptors is “one to two”.
Take `CCN(C)C(=O)Oc1cccc([C@H](C)N(C)C)c1` [rivastigmine]: the action time entry in the series with cholinergic receptors is given as “one to two”.
As for `O=N[O-].[Na+]` [NaNO2], the “cytotoxic effect on epithelial cells” value in series [1] (high concentration of NO (100 mM NaNO2), over the same period (6 hs)) is “cytotoxic effect”. In addition, the “viability of epithelial cells” value in series [1] (low concentrations of NO (1 nM to 1 mM NaNO2), 6 hs after application) is listed as “significantly increased”.
Turning to `CN(C)C(=O)Oc1cccc([N+](C)(C)C)c1` [neostigmine], in the series on cholinergic receptors, the action time entry was “one to two”.
